Data as given in US20240307339A1, “NOVEL COMPOUNDS FOR THE TREATMENT AND PREVENTION OF NEUROLOGICAL COMPLICATIONS OF VIRAL INFECTIONS” (Sunregen Healthcare AG, priority 2021, published 2024).

Assays:
[1] = test system: Mouse hepatitis virus (MHV); test: mouse model of coronavirus infection (MHV infected mice); type: in vivo, C57BL/6J male mice; settings: vs vehicle; for clinical score / clinical severity of virus induced neuropathology: 50 mg/kg, treatment started 3 days after virus infection till Day 21, P<0.05 on days 9, 10 or 14
Description: Tripentadecanoin was tested in a mouse model of coronavirus infection. The objective of this study was to investigate tripentadecanoin's therapeutic effects in MHV infected mice. Mouse hepatitis virus (MHV) causes acute infections of the murine liver and lungs and persistent infections of the gastrointestinal tract and central nervous system (CNS). […] This virus was named JHM virus (JHMV) and subsequently shown to be a coronavirus, related to other MHV strains (Bergmann, C., Lane, T. & Stohlman, S. Coronavirus infection of the central nervous system: host-virus stand-off. Nat Rev Microbiol 2006; 4:121-132.). JMHV is now broadly used to study virus-induced neurological diseases, particularly demyelination. It is considered to be a suitable model for coronavirus-induced neurological complication. CNS infection with MHV provides an animal model for acute viral-induced encephalomyelitis and the human demyelinating disease, multiple sclerosis. MHV-induced demyelinating disease is typified by mice, which control viral replication, but fail to fully clear virus. Acute infection induces CNS inflammation and initiates the demyelinating process. Animals that fail to control virus replication in a sufficiently rapid manner succumb to encephalomyelitis within 5-10 days. Survivors of acute infection typically eliminate infectious virus within two weeks. However, these animals still fail to achieve sterile immunity as evidenced by the persisting viral antigen (Ag) and RNA within the CNS. MHV persistence is associated with chronic CNS inflammation and ongoing primary demyelination.
20 C57BL/6J male mice of at 5 weeks of age were randomized into 2 groups of vehicle control or tripentadecanoin 50 mg/kg. Tripentadecanoin or vehicle control treatment was started 3 days after virus infection for a total of 19 days till Day 21. Clinical score of MHV infected mice was rated as: 0—asymptomatic; 1—limp tail; 2—wobbly gait with righting difficulty; 3—hind limb weakness and extreme righting difficulty; 4—hind limb paralysis; 5—moribund.

[2] = test system: NMU-induced photoreceptor degeneration (retina); test: murine model of N-nitroso-N-methylurea (NMU) photoreceptor degeneration; type: in vivo, C57BL/6J mice; settings: for outer nuclear layer (ONL) area under the curve (AUC -1.75 to +1.75 μm): H&E histology; for number of rows of photoreceptor nuclei: mid-peripheral region
Description: Eighteen 8-12-week-old female C57BL/6J mice were randomized into three groups: 1) NMU+vehicle; 2) NMU+Tripentadecanoin 20 mg/kg; 3) NMU+Tripentadecanoin 50 mg/kg. NMU at a dose of 50 mg/kg was injected i.p. to all mice; Tripentadecanoin (or vehicle) was administered daily via oral gavage starting 3 days before NMU and continuing until 7 days after NMU challenge. Retina were imaged by spectral domain optical coherence tomography (OCT) 5 days before exposing to NMU and 7 days after NMU. All eyes were collected and processed for histological hematoxylin and eosin (H&E) staining. The thicknesses of photoreceptors were measured from different locations on OCT images and H&E slides, respectively. Photoreceptor thickness on H&E slides were quantified using automated Leica software (Leica, Heerbrugg), operated by a single masked observer. Results were expressed as the outer nuclear layer (ONL) area under the curve (AUC −1.75 to +1.75 μm) and number of rows of photoreceptor nuclei.

[3] = test system: Hsp104-GFP age-induced protein deposit; test: Hsp104-GFP age-induced protein deposit in old yeast cells (replicative ageing); type: cell-based, Saccharomyces cerevisiae; settings: for proportion of cells with an Hsp104-GFP focus / proportion of cells with an Hsp104-GFP focus decreased: 30 μM
Excerpt: While yeast populations can be propagated ad libitum, the yeast mother cell has a finite lifespan and can only produce a certain amount of daughter cells, typically 25 for laboratory backgrounds. Mortality rate increases with the number of daughter cells produced, therefore this phenomenon is termed replicative ageing. In old yeast cells, age-induced protein deposits recruit a specific set of chaperones and co-chaperones.
Hsp104 expressed endogenously as a fusion to the green fluorescent protein tag (Hsp104-GFP) forms a focus in old cells. The presence (percentage of cells with an aggregate at a certain age), number (number of foci per cell) and size (fluorescent brightness) can be assessed on hundreds of cells and thus, this gives a good model for assessing the biology of age induced aggregates.
To test if tripentadecanoin is active in yeast, cells were treated with different concentrations of the purified compound (1 μM, 10 μM and 30 μM) as well as an extract (10 μg/ml) of the plant it is derived from (Ophioglossum thermale). These cells were let to age in the presence of the compound and after 10-11 generations, cells were imaged to count their age and assess whether they contained a Hsp104-GFP age-induced protein deposit or not (FIG. 3A).
(§1) Potential targets of the compound of formula (I) were identified by using RNAseq. The yeast cells (Saccharomyces cerevisiae) were treated with tripentadecanoin (30 μM) for 5 hours and the mRNA abundance of all genes in cells that were treated with the compound or vehicle only for 5 hours was quantitatively monitored. Samples in triplicate were processed by the company Genewiz. […] Among these hits is Yhb1, a flavohemoglobin that plays a role in nitrosative stress response (FIG. 4A). Following the results from the RNAseq survey, PH084, YHB1 or VTC4 were knocked out and the proportion of old cells with an Hsp104-GFP focus was measured, as before. While pho84Δ cells were similar to wild type cells, much more vtc4Δ and yhb1Δ mutant cells contained an age-induced deposit (FIG. 4A).

[4] = test system: YHB1 (yeast homologue of neuroglobin) mRNA; test: RNAseq of yeast cells treated with tripentadecanoin; type: cell-based, Saccharomyces cerevisiae
Description: as §1

neuroglobin mRNA = test: Expression of neuroglobin in mouse primary cortical neurons (qPCR); type: cell-based, C57BL/6J mouse
Description: Healthy neurons preparation: primary mouse cortical neurons from embryonic day 16-17 were prepared from C57BL/6J mouse foetuses, resulting in 95-97% of neurons and 3-5% astrocytes. At DIV 5/6, mouse primary cortical neurons was treated for 3 h (T3) or 24 h (T24) with vehicle (ethanol) or increasing concentrations of tripentadecanoin (100 or 1000 nM). q PCRmethods used to amplify the mRNA of neuroglobin.
The amount and quality of RNA were evaluated using capillary electrophoresis. The complementary DNA (cDNA) was synthesized by reverse transcription of total RNA in presence of oligo(dT) and “Transcriptor reverse transcriptase” from Roche. The cDNA quantities were then adjusted before the PCRstep. The qPCRreactions were performed using the Licht Cycler system from Roche according to supplier instructions. In this experiment, Rps28 (Ribosomal protein S28) was used as a reference marker (also referred to as housekeeping gene).
The reaction mix (10 μL final) was prepared as follows: • 2.5 μL cDNA • Primers and TaqMan probe • Reagent mix containing taq DNA polymerase and MgCl2.
The following primers were used in this experiment: […]

Question: `CCCCCCCCCCCCCCC(=O)OCC(COC(=O)CCCCCCCCCCCCCC)OC(=O)CCCCCCCCCCCCCC` [tripentadecanoin] was tested. Which “clinical score / clinical severity of virus induced neuropathology” value [1] did it give?
Answer: reducing the clinical severity of virus induced neuropathology

Question: What about the “clinical score / clinical severity of virus induced neuropathology” value ([1]; listed as compound of the formula (I)) of the same molecule?
Answer: improved clinical score

Question: And the “weight loss of animals” value ([1]; mouse model of coronavirus infection)?
Answer: reduced weight loss of animals

Question: And the “outer nuclear layer (ONL) area under the curve (AUC -1.75 to +1.75 μm)” value ([2]; 20 mg/kg daily oral gavage, p<0.01 vs vehicle)?
Answer: 73.58±14.45

Question: What about the “number of rows of photoreceptor nuclei” value ([2]; 20 mg/kg, p<0.01 vs vehicle) of the same molecule?
Answer: 6.4±1.2

Question: What about the “outer nuclear layer (ONL) area under the curve (AUC -1.75 to +1.75 μm)” value ([2]; 50 mg/kg daily oral gavage, p<0.001 vs vehicle) of the same molecule?
Answer: 83.08±19.05

Question: And the “number of rows of photoreceptor nuclei” value ([2]; 50 mg/kg, p<0.001 vs vehicle)?
Answer: 7.0±1.7

Question: And the “neuroretinal thickness (OCT)” value ([2]; 50 mg/kg, peripheral (p<0.05), mid-peripheral (p<0.05) and central retina (p<0.01) vs vehicle)?
Answer: significantly increased

Question: And the “thickness of photoreceptor layers (in vivo OCT images)” value ([2]; OCT 7 days after NMU, vs control)?
Answer: increased thickness of photoreceptor layers

Question: What about the “cells containing a Hsp104-GFP age-induced protein deposit (focus)” value ([3]; 1 μM, 10 μM and 30 μM, after 10-11 generations, vs vehicle 0.3% ethanol) of the same molecule?
Answer: less likely to harbor a Hsp104-GFP focus

Question: What about the “proportion of cells with an Hsp104-GFP focus” value ([3]; pho84Δ cells) of the same molecule?
Answer: decreased

Question: And the “proportion of cells with an Hsp104-GFP focus decreased” value ([3]; vtc4Δ mutant cells)?
Answer: this was not the case

Question: And the “proportion of cells with an Hsp104-GFP focus” value ([3]; wild type cells)?
Answer: decreased

Question: What about the “aggregation of HSP-104 (GFP-HSP104 loci)” value ([3]; yeast cells, summary statement) of the same molecule?
Answer: greatly reduced

Question: What about the “proportion of cells with an Hsp104-GFP focus decreased” value ([3]; yhb1Δ mutant cells) of the same molecule?
Answer: this was not the case

Question: What about the “mRNAs significantly differentially expressed vs vehicle” value ([4]; 30 μM, 5 hours, RNAseq, triplicate) of the same molecule?
Answer: 157

Question: What about the “expression of YHB1” value ([4]; yeast cells treated with tripentadecanoin) of the same molecule?
Answer: significantly increased

Question: What about the “expression of neuroglobin vs vehicle control” value (neuroglobin mRNA; 1000 nM, 3 hours, p<0.001) of the same molecule?
Answer: significant increased expression of neuroglobin

Question: What about the “increase in the expression level of neuroglobin” value (neuroglobin mRNA; mouse neurons, Example 4) of the same molecule?
Answer: approximately six-fold
